What was measured:
Assay type in all cases: physicochemical
[1] = Gel formation with vitamin C derivatives in 2% silk solution; settings: 100 mg of vitamin C derivative in 15 mL of 2% silk solution
Experimental: The Tables in FIGS. 89A-89B summarize embodiments of gels of the present disclosure. Ascorbic acid-2-glucoside was the most successful vitamin C derivative at gel formation with gel being formed in a 2% silk solution in 3 days. […] In all cases 100 mg of vitamin C derivative was mixed in 15 mL of 2% silk solution, and all gels had the same appearance as gels created with ascorbic acid.
Gels were also cast with combinations of two vitamin C options. In each case, at least one of the vitamin C options was known to cause gelation (L-ascorbic acid or ascorbic acid-2-glucoside). All combination gels were able to gel at 1% total vitamin C additive concentration. […] Without wishing to be bound by theory, it appears there is a relationship between vitamin C concentration, silk concentration, and gelation. An increase in vitamin C at a given concentration of silk will result in a longer time to gelation or inhibit gelation. This may be due to the vitamin C molecule physically blocking interaction between silk protein fragments or cross-linking of silk protein. Modification to pH may allow additional concentrations of vitamin C and derivatives thereof to be added.

[2] = Dissolution of vitamin C derivative in aqueous silk solution
From the text: Ascorbyl tetraisopalmitate is a highly viscous, oil soluble liquid that might need the help of an emulsifier to possible dissolve in aqueous silk solution.

[3] = HPLC chromatograms of vitamin C samples (degradation products); settings: after 1 hour at ambient conditions without chemical stabilization
Experimental: FIGS. 36A and 36B show HPLC chromatograms from samples comprising vitamin C. […] No degradation products were visible.
FIGS. 36A and 36B show two HPLC chromatograms from samples comprising vitamin C. […] No degradation products were visible. FIG. 59 is a table summarizing the vitamin C concentration in silk protein fragment-films (2% silk films air dried at RT) of the present disclosure. In FIG. 59 processing conditions included 100° C. extraction for 20 min, RT rinse, LiBr in 60° C. oven for 4-6 hours. FIG. 60 is a table summarizing the stability of vitamin C in chemically stabilized solutions. FIGS. 89A-89B are tables summarizing vitamin C stability in SPF gels without chemical stabilizers as compared to chemically stabilized vitamin C in competitive anti-aging skincare products. […] Without wishing to be bound by theory, it appears there is a relationship between vitamin C concentration, silk concentration, and gelation. An increase in vitamin C at a given concentration of silk will result in a longer time to gelation or inhibit gelation. This may be due to the vitamin C molecule physically blocking interaction between silk protein fragments or cross-linking of silk protein.

| SMILES | time to gel formation [1] | also measured |
| --- | --- | --- |
| O=C1O[C@H]([C@@H](O)CO)C(O)=C1O[C@H]1O[C@H](CO)[C@@H](O)[C@H](O)[C@H]1O [Ascorbic acid-2-glucoside] | 3 days | – |
| CCCCCCCCC(CCCCCC)C(=O)OC[C@H](OC(=O)C(CCCCCC)CCCCCCCC)[C@H]1OC(=O)C(OC(=O)C(CCCCCC)CCCCCCCC)=C1OC(=O)C(CCCCCC)CCCCCCCC (some centres unmarked) [Ascorbyl tetraisopalmitate] | – | ability to dissolve or be dispersed in aqueous silk solution [2]: unable to dissolve or be dispersed |
| O=C1O[C@H]([C@@H](O)CO)C([O-])=C1OP(=O)([O-])[O-].[Na+].[Na+].[Na+] [Sodium Ascorbyl Phosphate (Aromantic), Sodium Ascorbyl Phosphate] | failed to create a gel | – |
| O=C1O[C@H]([C@@H](O)CO)C([O-])=C1OP(=O)([O-])[O-].[Na+].[Na+].[Na+] [Sodium ascorbyl phosphate from DSM, Sodium ascorbyl phosphate] | 28 days | – |
| O=C1O[C@H]([C@@H](O)CO)C(O)=C1O [vitamin C, L-ascorbic acid] | – | vitamin C degradation products (HPLC) [3]: degradation products are visible |
